From EP0432309B1, “Sugar derivatives, process for their preparation and their use” (Laevosan-Gesellschaft m.b.H., priority 1989, dated 1991)

Key:
[1] = stability / hydrolysis in aqueous solution; assay type: physicochemical; conditions: result in words
Experimental: Aus den geeigneten Fraktionen kann hochgereinigte 3-DGP als farbloser, nicht kristallisierender Sirup erhalten werden. Da die Substanz unter wasserfreien oder wasserarmen Bedingungen zur Bildung von dimeren Anhydriden neigt, ist es zweckmäßig, sie als etwa 50 %ige wäßrige Lösung herzustellen und aufzubewahren. […] Erhöhung der Temperatur und Absenken des pH-Wertes beschleunigen diese Zersetzung. Für die Aufbewahrung ist es daher zweckmäßig, Temperaturen von ≦ 4°C und pH-Werte zwischen 5 und 6 einzuhalten. In solchen Lösungen liegt offenbar ein Gemisch der alpha- und beta-Furanosen und des offenkettigen Ketozuckers vor.
Die Glycoside bilden sich außerordentlich leicht aus den Lösungen von 3-DGP in den entsprechenden Alkoholen in Gegenwart sehr geringer Mengen an Säure oder Ionenaustauscher in der H⁺-Form als Katalysator bereits nach kurzer Behandlung bei Raumtemperatur. Ebenso leicht tritt in wäßriger Lösung Hydrolyse der Glycoside ein, so daß unter physiologischen Bedingungen eine Äquivalenz mit freier 3-DGP erwartet werden kann.
Das Dianhydrid der Formel II (R = H) bildet sich leicht bei Behandlung von mäßig sauren 3-DGP-Lösungen mit wasserentziehenden Mitteln, wie z.B. wasserfreiem Natriumsulfat oder Calciumsulfat, oder beim Eindampfen von wäßrigen oder organischen Lösungen von 3-DGP und Stehenlassen des wasserfreien Produktes.

[2] = test system: humanen Ovarialkarzinom-Zellkultur (HOC-7); experiment: human tumour cloning assay (HTCA): clonal growth of single malignant cells in semisolid media, colonies counted after 21 days; assay type: cell-based; conditions: for Kolonienüberleben: HOC-7, 21 days; for antiproliferative/cytotoxische Wirkung: HOC-7, HTCA, result in words
From the text: Zur Prüfung auf ihre antiproliferativen/cytotoxischen Eigenschaften wurden die erfindungsgemäßen Verbindungen der Formel I und II mittels einer humanen Ovarialkarzinom-Zellkultur (HOC-7) getestet, wobei als Testsystem der sogenannte human tumour cloning assay (HTCA) herangezogen wurde, ein System, in dem das klonale Wachstum maligner Einzelzellen in semisoliden Medien selektiv erfaßt wird (vgl. S. Hamburger, Science 197, (1977), 461). Dabei zeigten die Verbindungen eine überraschend hohe antiproliferative/cytotoxische Wirkung.
Das in Beispiel 1 hergestellte 3-DGP sowie DGP-DA von Beispiel 2 wurden hinsichtlich ihrer antiproliferativen/cytotoxischen Eigenschaften mittels einer humanen Ovarialkarzinom-Zellkultur (HOC-7) getestet, wobei als Testsystem der sogenannte human tumour cloning assay (HTCA) herangezogen wurde, ein System, in dem das klonale Wachstum maligner Einzelzellen in semisoliden Medien selektiv erfaßt wird (vgl. S. Hamburger, Science 197, (1977), 461).
Je eine wäßrige Lösung von 3-DGP und DGP-DA wurde in folgender Verdünnungsreihe getestet.
wobei sowohl ein […] (in Form von HgCl₂) als auch ein Ansatz mit Lösungsmittel (Aqua bidest) mitgeführt wurde.
Die Kulturen wurden bei 37°C, 5 % CO₂, 100 % Luftfeuchtigkeit 21 Tage inkubiert, danach wurden die Kultursysteme aufgearbeitet, wobei die gewachsenen Kolonien (Klone) unter dem Mikroskop ausgezählt wurden.
Als Wirksamkeit der getesteten Lösung wurde ein Kolonienüberleben < 50 % der Kontrolle definiert.

[3] = test system: Pseudomonas aeruginosa ATCC 9027; experiment: preservation test according to DAB 9, VIII, N1 (colony counts over time); assay type: cell-based; conditions: Pseud. aerug.; for KBE nach 10 Tagen: 10 days; for KBE nach 3 Tagen: 3 days; for KBE nach 1 Tag: 1 day
From the text: (§1) Die erfindungsgemäßen Verbindungen weisen eine bakterizide Wirksamkeit auf, wie die nachstehend angegebenen Versuchsergebnisse zeigen: Präparat: Di-deoxy-glyceropentulose-Dianhydrid 0,3 %, 1 % und 3 % Die Untersuchung wurde mit folgenden Keimen durchgeführt: Escherichia coli ATCC 8739 Pseudomonas aeruginosa ATCC 9027 Staphylococcus aureus ATCC 6538 Candida albicans ATCC 10231 Aspergillus niger ATCC 16404 Tabelle 6
(§2) Analog Beispiel 9 wurde die bakterizide Wirksamkeit von DGP untersucht. Präparat: DGP-wässriger Sirup 0,3 %, 1 % und 3 %, Charge: 91621 Die Untersuchung wurde mit folgenden Keimen durchgeführt: Escherichia coli ATCC 8739 Pseudomonas aeruginosa ATCC 9027 Staphyloccus aureus ATCC 6538 Candida albicans ATCC 10231 Aspergillus niger ATCC 16404 Tabelle 7

[4] = test system: Staphylococcus aureus ATCC 6538; experiment: as above; assay type: cell-based; conditions: Staph. aureus; for KBE nach 10 Tagen: 10 days; for KBE nach 3 Tagen: 3 days; for KBE nach 1 Tag: 1 day
From the text: as §1, §2

[5] = test system: Escherichia coli ATCC 8739; experiment: as above; assay type: cell-based; conditions: E. coli; for KBE nach 10 Tagen: 10 days; for KBE nach 3 Tagen: 3 days; for KBE nach 1 Tag: 1 day
From the text: as §1, §2

[6] = result in words

## O=C(CO)C[C@H](O)CO [DGP, 3-Deoxy-D-Glyceropentulose]
[1]
  Stabilität der wäßrigen Lösung: relativ instabil
[2]; Testkonzentration C-F (5.000-250 µg/ml im Petrischälchen), % of control
  Kolonienüberleben: 0 % = Wirksamkeit
[2]; Testkonzentration F1 (200 µg/ml)
  Kolonienüberleben: 0,08 % = Wirksamkeit
[2]; Testkonzentration F2 (152 µg/ml)
  Kolonienüberleben: 10 % = Wirksamkeit
[2]; Testkonzentration F3 (100 µg/ml)
  Kolonienüberleben: 44 % = intermediäre Wirksamkeit
[2]; Testkonzentration G-J (50-2,5 µg/ml)
  Kolonienüberleben: 65 - 84 % = keine Wirksamkeit
[3]; Konz 0,3 %
  KBE nach 10 Tagen: 0 KBE
[3]; Konz 1 %
  KBE nach 3 Tagen: 0 KBE
  KBE nach 10 Tagen: 0 KBE
[3]; Konz 3 %
  KBE nach 1 Tag: 15 KBE
  KBE nach 3 Tagen: 0 KBE
  KBE nach 10 Tagen: 0 KBE
[4]; Konz 0,3 %
  KBE nach 10 Tagen: 0 KBE
[4]; Konz 1 %
  KBE nach 10 Tagen: 0 KBE
[4]; Konz 3 %
  KBE nach 3 Tagen: 0 KBE
  KBE nach 10 Tagen: 0 KBE
[5]; Konz 3 %
  KBE nach 10 Tagen: 0 KBE

## OC1COC2(COC3(CO2)CC(O)CO3)C1 [DGP-DA, Di-(3-deoxy-D-glyceropentulose)-dianhydrid]
[1]
  Stabilität der wäßrigen Lösung: leicht zum Monomeren spaltbar
[2]; Testkonzentration C (5.000 µg/ml)
  Kolonienüberleben: 30 % = Wirksamkeit
[2]; Testkonzentration D (2.500 µg/ml)
  Kolonienüberleben: 50 % = intermediäre Wirksamkeit
[2]; Testkonzentration E (500 µg/ml)
  Kolonienüberleben: 57 % = intermediäre Wirksamkeit
[2]; Testkonzentration F-J (250-2,5 µg/ml)
  Kolonienüberleben: 61 - 89 % = keine Wirksamkeit
[3]; Konz 3 %
  KBE nach 1 Tag: 0 KBE
  KBE nach 3 Tagen: 0 KBE
  KBE nach 10 Tagen: 0 KBE
[4]; Konz 0,3 %
  KBE nach 1 Tag: 0 KBE
  KBE nach 3 Tagen: 0 KBE
  KBE nach 10 Tagen: 0 KBE
[4]; Konz 1 %
  KBE nach 1 Tag: 0 KBE
  KBE nach 3 Tagen: 0 KBE
  KBE nach 10 Tagen: 0 KBE
[4]; Konz 3 %
  KBE nach 1 Tag: 0 KBE
  KBE nach 3 Tagen: 0 KBE
  KBE nach 10 Tagen: 0 KBE
[5]; Konz 0,3 %
  KBE nach 3 Tagen: 0 KBE
  KBE nach 10 Tagen: 0 KBE
[5]; Konz 1 %
  KBE nach 1 Tag: 0 KBE
  KBE nach 3 Tagen: 0 KBE
  KBE nach 10 Tagen: 0 KBE
[5]; Konz 3 %
  KBE nach 1 Tag: 0 KBE
  KBE nach 3 Tagen: 0 KBE
  KBE nach 10 Tagen: 0 KBE

## CCCCOC1(COC(C)=O)C[C@H](OC(C)=O)CO1 (stereo partly drawn) [Diacyl-n-butyl-glycosid, n-Butyl-1,4-Diacetyl-3-Deoxy-D-Glyceropentulosid]
[2]
  antiproliferative/cytotoxische Wirkung: eindeutige antiproliferative/cytotoxische Wirkung

## COC1(CO)C[C@H](O)CO1 (stereo partly drawn) [Methylglycosid, Methyl-3-Deoxy-D-Glyceropentulosid]
[2]
  antiproliferative/cytotoxische Wirkung: eindeutige antiproliferative/cytotoxische Wirkung

## [Cl][Hg][Cl] [Negativkontrolle, HgCl₂, reference compound]
[2]; Negativkontrolle VI (HgCl₂), concentration not given
  Kolonienüberleben: 0%

## CCCCOC1(CO)C[C@H](O)CO1 (stereo partly drawn) [n-Butylglycosid, n-Butyl-3-Deoxy-D-Glyceropentulosid]
[6]
  Löslichkeit: gut löslich in Wasser, Alkoholen und niederen Ketonen
[2]
  antiproliferative/cytotoxische Wirkung: eindeutige antiproliferative/cytotoxische Wirkung
